The text below walks through data of the supplement of paper PMC2824726.

Values joined by “and” are separate entries in the source; they are usually repeats but may differ in a detail not shown here. Equal entries are not always repeated.

This data set concerns MDA-MB-231. The data set is described as follows: shRNA barcode abundance ratio t_end/t_zero (depletion over 4 weeks of proliferation) (log2 ratio); higher = less depletion (weaker anti-proliferative effect of the shRNA). The conditions noted are these: time after t zero 28 days. How it is done:
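Pooled lentiviral negative-selection screen of 305 pGIPZ shRNAs (Open Biosystems V2LHS clones; the 21-nt half-hairpin sense stem is embedded in a mir-30 scaffold) in MDA-MB-231 breast carcinoma cells, infected at MOI 0.3 with 0.5 ug/ml puromycin selection. Barcode abundance was read on barcode tiling microarrays (six 25-nt probes per 60-nt barcode) at t_zero (5 days post-infection) and t_end (33 days; 28 days of culture after t_zero). Values are median-normalised t_end/t_zero signal ratios, averaged over the tiling probes that passed a 10-fold background filter, from three biological replicates.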
For the sequence “GCGCCGAAATTGCAGGTTTAT (targeted gene: BIRC8)”, the “shRNA barcode abundance ratio t end/t zero (log2)” value was -0.37.

Consider “TGTTAACAAATGTGGCAATTA (targeted gene: TPT1)”, for which the “shRNA barcode abundance ratio t end/t zero (log2)” value came out at 0.164.

On to “GGTATTCTCATCAAGAAACTT (targeted gene: BCL2A1)”, for which the “shRNA barcode abundance ratio t end/t zero (log2)” value stood at 0.349.

Turning to “GCACCTAGTGTCCAGATTCAT (targeted gene: HDAC3)”, the “shRNA barcode abundance ratio t end/t zero (log2)” value worked out at 0.129.

“CCTGGCTCCTCTACTGTTTAA (targeted gene: BIRC5)”: the “shRNA barcode abundance ratio t end/t zero (log2)” value is -0.954.

On to “CCCTGAGACCATATCCTTAAA (targeted gene: OPA1)”, for which the “shRNA barcode abundance ratio t end/t zero (log2)” value is -0.115.

Take “CCTTGGAAAGGATGAACAAAT (targeted gene: TOPORS)”: the “shRNA barcode abundance ratio t end/t zero (log2)” value is 0.154.

Take “CCAGTGACCTTCGCTCCACAT (targeted gene: BAD)”: the “shRNA barcode abundance ratio t end/t zero (log2)” value came to 0.391.

In the case of “GCTGCTTCTGTCTGGTTTATT (targeted gene: THY1)”, the “shRNA barcode abundance ratio t end/t zero (log2)” value is -0.0341.

As for “TCTCTTAAAGTTGATATCTTA (targeted gene: TNFAIP3)”, the “shRNA barcode abundance ratio t end/t zero (log2)” value amounted to 0.213.

For the sequence “TCAGGAAATGTTATCAGCAAA (targeted gene: BNIP2)”, the “shRNA barcode abundance ratio t end/t zero (log2)” value was 0.477.

With “GCAGTATAGAGCGTGCAGATA (targeted gene: PTEN)”, the “shRNA barcode abundance ratio t end/t zero (log2)” value is -0.0774.

For “CCTTCGCCAGATCACTGTTAA (targeted gene: PRDX2)”, the “shRNA barcode abundance ratio t end/t zero (log2)” value worked out at 0.234.

Consider “CGACTCTATCAGGGTATAAAT (targeted gene: MSH2)”, for which the “shRNA barcode abundance ratio t end/t zero (log2)” value was 0.0312.

In the case of “GAACTAGATCTGTTGCTTAAT (targeted gene: AVEN)”, the “shRNA barcode abundance ratio t end/t zero (log2)” value was found to be 0.231.

On to “CCATATGTTCATTACATACAT (targeted gene: FANCF)”, for which the “shRNA barcode abundance ratio t end/t zero (log2)” value turned out to be 0.17.

As for “GGTGAAGATATATTCCTCCAA (targeted gene: PTEN)”, the “shRNA barcode abundance ratio t end/t zero (log2)” value came to 0.129.

In the case of “GGATTCTCAACACTTTGAATT (targeted gene: ANXA4)”, the “shRNA barcode abundance ratio t end/t zero (log2)” value was found to be 0.244.

Consider “AGCATTGTCATGAGCTTAATA (targeted gene: API5)”, for which the “shRNA barcode abundance ratio t end/t zero (log2)” value was determined as 0.169.

Regarding “CCATTCTGATTCTTCAGTCAT (targeted gene: TOPORS)”, the “shRNA barcode abundance ratio t end/t zero (log2)” value was found to be 0.459.

As to “CATCTCAGTATGCATGGTATA (targeted gene: CFLAR)”, the “shRNA barcode abundance ratio t end/t zero (log2)” value was -0.976.

Consider “CCTGTTATCAATCTGCTAAAT (targeted gene: FOXO1)”, for which the “shRNA barcode abundance ratio t end/t zero (log2)” value turned out to be 0.0156.

“TCACAGAGCTTTGTAAGCAAA (targeted gene: NME5)”: the “shRNA barcode abundance ratio t end/t zero (log2)” value turned out to be 0.139.

In the case of “CGGTTTGCTGAGGAGAAAGAA (targeted gene: AVEN)”, the “shRNA barcode abundance ratio t end/t zero (log2)” value worked out at 0.241.

With “CCTAGAAGCATTTATGATTTA (targeted gene: BCL2L2)”, the “shRNA barcode abundance ratio t end/t zero (log2)” value worked out at 0.344.

“CCTGCCCATTAGAGAAGTATT (targeted gene: VHL)”: the “shRNA barcode abundance ratio t end/t zero (log2)” value is -0.221.

As for “AGAGAGAACTGCTCAGTAATT (targeted gene: BRE)”, the “shRNA barcode abundance ratio t end/t zero (log2)” value is 0.237.

“GGAGTGAGATTGATCTGTTTA (targeted gene: ANXA5)”: the “shRNA barcode abundance ratio t end/t zero (log2)” value is -0.0616.

Turning to “GGTAGCAATTGCCTGAATAAT (targeted gene: IL7)”, the “shRNA barcode abundance ratio t end/t zero (log2)” value is -0.149.

Regarding “GCAAGCAGTCTTGTGAGTTAA (targeted gene: RASA1)”, the “shRNA barcode abundance ratio t end/t zero (log2)” value was -0.169 and -0.167.

Turning to “GGCAAATCCTTGTTTAACAAA (targeted gene: BIRC6)”, the “shRNA barcode abundance ratio t end/t zero (log2)” value was 0.616.

With “CGAACTCCTCTTCTCAGTTAA (targeted gene: IGF1R)”, the “shRNA barcode abundance ratio t end/t zero (log2)” value was 0.302.

“CGGGTTTCTCCGGCGTCATTA (targeted gene: PIM1)”: the “shRNA barcode abundance ratio t end/t zero (log2)” value was 0.0461 and 0.0898.

Consider “CCTCCCTCTCAGAACCAATAA (targeted gene: DDAH2)”, for which the “shRNA barcode abundance ratio t end/t zero (log2)” value was -0.269.

With “AGGCAATTTATCTTGATGTGA (targeted gene: FAIM3)”, the “shRNA barcode abundance ratio t end/t zero (log2)” value was determined as 0.137.

As for “TCACACTGGTTCTCAATGAAA (targeted gene: BAG1)”, the “shRNA barcode abundance ratio t end/t zero (log2)” value turned out to be 0.198.

For “GCCTTGAAACATTGATGGAAT (targeted gene: BCL2)”, the “shRNA barcode abundance ratio t end/t zero (log2)” value came to 0.25.

With “GGAACTTTAGTTGAAGCGTAA (targeted gene: APAF1)”, the “shRNA barcode abundance ratio t end/t zero (log2)” value is 0.303.

With “CACCAGCACTTTATACACTTC (targeted gene: RHOC)”, the “shRNA barcode abundance ratio t end/t zero (log2)” value is 0.652.

For “GCTGAAGTACAGGACAATTAT (targeted gene: TAX1BP1)”, the “shRNA barcode abundance ratio t end/t zero (log2)” value was found to be 0.181.

Turning to “GGAGAGAACTGTCATTTCTAA (targeted gene: IGF1R)”, the “shRNA barcode abundance ratio t end/t zero (log2)” value was 0.393.

Take “GCGTTTAAGGTGAGCATAAAT (targeted gene: CYP1B1)”: the “shRNA barcode abundance ratio t end/t zero (log2)” value was -0.142.

In the case of “GCATGTTATGTTGTTCTTATT (targeted gene: XIAP)”, the “shRNA barcode abundance ratio t end/t zero (log2)” value was found to be 0.25.

Regarding “GGCACAACACTAATTACCATT (targeted gene: PROK2)”, the “shRNA barcode abundance ratio t end/t zero (log2)” value is 0.0935.

On to “GGAGAAATTATTGATCCAAAT (targeted gene: NAIP)”, for which the “shRNA barcode abundance ratio t end/t zero (log2)” value came to 0.608.

On to “GGGAGGTAAATCAACATATAT (targeted gene: MSH2)”, for which the “shRNA barcode abundance ratio t end/t zero (log2)” value came to 0.109.

Consider “GGAAATTCTTTCACTTCATTA (targeted gene: MCL1)”, for which the “shRNA barcode abundance ratio t end/t zero (log2)” value worked out at 0.208.

Turning to “GATCCTAAGATGTGTTCTTAT (targeted gene: CYP1B1)”, the “shRNA barcode abundance ratio t end/t zero (log2)” value amounted to 0.664.

Consider “GCGAAGAACCTTGTGTGACAA (targeted gene: BCL2)”, for which the “shRNA barcode abundance ratio t end/t zero (log2)” value was -0.0784.

Regarding “GCAGATTCAAGTCAATCTGAA (targeted gene: NFIA)”, the “shRNA barcode abundance ratio t end/t zero (log2)” value is 0.355.

With “ACGCTCTGTGGCCAGTGTAAA (targeted gene: SULF2)”, the “shRNA barcode abundance ratio t end/t zero (log2)” value was found to be 0.249.

For the sequence “GCTGCCAAACTTCAGATAATA (targeted gene: NT5C3)”, the “shRNA barcode abundance ratio t end/t zero (log2)” value was found to be 0.163.

For “CGCCAGCACCGGAGGAAGAAA (targeted gene: CDKN2A)”, the “shRNA barcode abundance ratio t end/t zero (log2)” value was -0.0357.

As for “GGCCCAAATTATCAAGCTAAT (targeted gene: CRYAB)”, the “shRNA barcode abundance ratio t end/t zero (log2)” value is -0.348.

Regarding “GCTCACTCTTCAGTCGGAAAT (targeted gene: BCL2L1)”, the “shRNA barcode abundance ratio t end/t zero (log2)” value was -0.368.

“GCCACATGTCTTTGCTTGATA (targeted gene: NAIP)”: the “shRNA barcode abundance ratio t end/t zero (log2)” value was 0.453.

“CGGTATTAAGTTGTAATTTAA (targeted gene: PROK2)”: the “shRNA barcode abundance ratio t end/t zero (log2)” value amounted to 0.137.

In the case of “AAGCGTGCTCTCCGAAGATAA (targeted gene: SORT1)”, the “shRNA barcode abundance ratio t end/t zero (log2)” value came to 0.237.

With “GCTTGTTGTTTGAGAAGTTTA (targeted gene: BAG3)”, the “shRNA barcode abundance ratio t end/t zero (log2)” value came to 0.38.

As for “CCAGACTCAGTTCACTGCAAA (targeted gene: MALT1)”, the “shRNA barcode abundance ratio t end/t zero (log2)” value is -0.00481.

As for “AGACATAAAGCCATCTCTTAT (targeted gene: NME5)”, the “shRNA barcode abundance ratio t end/t zero (log2)” value came out at 0.11.

Take “CGTCGTAATCACCACACTGAA (targeted gene: CDH1)”: the “shRNA barcode abundance ratio t end/t zero (log2)” value came to 0.11.

As to “GCGTCGTTAATTTATTTCTTA (targeted gene: IER3)”, the “shRNA barcode abundance ratio t end/t zero (log2)” value is 0.159.

“CCTCCGTCCCTCCTACCATAA (targeted gene: MYBL2)”: the “shRNA barcode abundance ratio t end/t zero (log2)” value came to 0.0727.

In the case of “CCTTTGAAAGTGGGTGGAATT (targeted gene: TNFAIP3)”, the “shRNA barcode abundance ratio t end/t zero (log2)” value came out at 0.0769.

In the case of “GGGAATCCAGTGTGTGAAGAA (targeted gene: RELA)”, the “shRNA barcode abundance ratio t end/t zero (log2)” value turned out to be 0.121.

For “CCACCTGGACTCCTATGAGAA (targeted gene: SOCS3)”, the “shRNA barcode abundance ratio t end/t zero (log2)” value was found to be 0.145.

Turning to “GCATCATGCCTTCTGAATAAA (targeted gene: CLN3)”, the “shRNA barcode abundance ratio t end/t zero (log2)” value was 0.486.

On to “GGCATTAGTTTCTCAGTTAAA (targeted gene: MLH1)”, for which the “shRNA barcode abundance ratio t end/t zero (log2)” value was 0.141.

Consider “GGCCTGACAATGGTACCTATT (targeted gene: HDAC3)”, for which the “shRNA barcode abundance ratio t end/t zero (log2)” value is -1.93.

As for “CCTACTAACAATATCTGTTAA (targeted gene: SOCS2)”, the “shRNA barcode abundance ratio t end/t zero (log2)” value came to 0.0566.

In the case of “CGCAAGAATCTGTTCCTAGTG (targeted gene: FAIM3)”, the “shRNA barcode abundance ratio t end/t zero (log2)” value is -0.255.

With “GGTCTCCTTAGGGAACATAAA (targeted gene: ATM)”, the “shRNA barcode abundance ratio t end/t zero (log2)” value is -0.27.

As for “GCCTGTCCATTGGTGATGTTG (targeted gene: HMGB1)”, the “shRNA barcode abundance ratio t end/t zero (log2)” value was -0.18.

For the sequence “GGTAAAGATGGCAAACAATAT (targeted gene: IL7)”, the “shRNA barcode abundance ratio t end/t zero (log2)” value was determined as 0.391.

Turning to “GCCGTTAACTAGGTTAATAAA (targeted gene: FANCF)”, the “shRNA barcode abundance ratio t end/t zero (log2)” value is -0.0468.

With “GGCCATGCCTGTTTACAAGAA (targeted gene: TP73)”, the “shRNA barcode abundance ratio t end/t zero (log2)” value was -0.24.
